According to patent US20120328565A1, “ANTIVIRAL COMPOUNDS” (priority 2011, published 2012):

System: HCV GT-1b Con1 subgenomic replicon
Experiment: HCV GT1b replicon luciferase reporter assay (2209-23 cells)
Format: cell-based
Settings: Hepatitis C virus, 2209-23 cell line (Huh-7 with GT-1b Con1 subgenomic replicon), Renilla luciferase read 72 hours after compound addition
Description: Determination of compounds HCV GT1b inhibitory replicon activity using the replicon luciferase reporter assay
The 2209-23 cell line was developed at Roche by stable transfection of the hepatoma cell line Huh-7 with a GT-1b Con1 subgenomic bicistronic replicon as previously described. Subgenomic replicon cell line was established in cured Huh7 cells, obtained from R. Bartenschlager (J. Virol. 2003 March; 77 (5):3007-19) The GT-1a H77 subgenomic replicon vector pRLuc H771b 75 S/I, was created by replacing the non structural region of the GT-1b Con1 subgenomic replicon by the one of the H77 strain, except for the first 75 amino acids of the NS3 protein that are from GT-1b Con1 strain. (J. Virol. 2001 77:5352-59) The GT-1a pRLuc H771b 75 S/I subgenomic replicon cell line was established in cured Huh7 cells, obtained from R. Bartenschlager. (J. Virol. 2003 March; 77 (5):3007-19)
All the subgenomic replicon cell lines were cultured in Dulbecco's Modified Eagle Medium (DMEM-Glutamax™-I; Invitrogen Cat #10569-010). The medium was supplemented with 10% Fetal Bovine Serum (Invitrogen Cat #10082-147), 1% penicillin/streptomycin (Mediatech Cat #30-002-CI) and 500 μg/ml of G418 (Mediatech Cat #30-234-CI). Cells were maintained at 37° C. in a humidified 5% CO2 atmosphere.
2209-23 cells were plated at a cell density of 5000 cells per well in 96 well plates (Becton Dickinson, Cat #35 3296). Cells were plated in 90 μl of Dulbecco's Modified Eagle Medium (DMEM-Glutamax™-I), (Invitrogen Cat #10569-010) medium was supplemented with 5% Fetal Bovine Serum (Invitrogen Cat #10082-147), 1% penicillin/streptomycin (Mediatech Cat #30-002-CI). The pRluc H771b 75 S/I cells were plated in 96-well plate at 3000 cells/well in DMEM-Glutamax™-I containing 5% FBS and 1% penicillin/streptomycin in 90 μl final volume. Cells were allowed to equilibrate for 24 hours at 37° C. and 5% CO2 at which time compounds were added. Compounds (or medium as a control) were added 24 hours post-plating in 3 fold dilutions at a final DMSO concentration of 1% in 10 ul volume. Renilla luciferase reporter signal was read 72 hours after addition of compounds using the Renilla Luciferase Assay System (Promega, cat #E2820). EC50 values were defined as the compound concentration at which a 50% reduction in the levels of renilla luciferase reporter was observed as compared to control samples in the absence of compound and was determined by non-linear fitting of compound dose-response data. The EC50 was approximated if maximum percentage inhibition was less than 90% and more than 70%.

Work on `COC(=O)N[C@H](C(=O)N1CCC[C@H]1C(=O)NC(=O)Nc1ccc(-c2ccc(-c3cnc([C@@H]4CCCN4C(=O)[C@@H](NC(=O)OC)C(C)C)[nH]3)cc2)cc1)C(C)C` [Compound I-1, ((S)-1-{(S)-2-[3-(4′-{2-[(S)-1-((S)-2-Methoxycarbonylamino-3-methyl-butyryl)-pyrrolidin-2-yl]-3H-imidazol-4-yl}-biphenyl-4-yl)-ureidocarbonyl]-pyrrolidine-1-carbonyl}-2-methyl-propyl)-carbamic acid methyl ester] yielded an IC50 of 0.463 nM.
With `COC(=O)N[C@H](C(=O)N1CCC[C@H]1C(=O)NC(=O)Nc1cccc(-c2ccc(-c3cnc([C@@H]4CCCN4C(=O)[C@@H](NC(=O)OC)C(C)C)[nH]3)cc2)c1)C(C)C` [Compound I-2, ((S)-1-{(S)-2-[3-(4′-{2-[(S)-1-((S)-2-Methoxycarbonylamino-3-methyl-butyryl)-pyrrolidin-2-yl]-3H-imidazol-4-yl}-biphenyl-3-yl)-ureidocarbonyl]-pyrrolidine-1-carbonyl}-2-methyl-propyl)-carbamic acid methyl ester] the IC50 was 8.42 nM.
Compound `COC(=O)N[C@H](C(=O)N1CCC[C@H]1c1ncc(-c2ccc(-c3ccc(NC(=O)NC(=O)[C@@H]4CCCN4C(=O)[C@H](NC(=O)OC)c4ccccc4)cc3)cc2)[nH]1)C(C)C` [Compound I-3, ((S)-1-{(S)-2-[5-(4′-{3-[(S)-1-((R)-2-Methoxycarbonylamino-2-phenyl-acetyl)-pyrrolidine-2-carbonyl]-ureido}-biphenyl-4-yl)-1H-imidazol-2-yl]-pyrrolidine-1-carbonyl}-2-methyl-propyl)-carbamic acid methyl ester] has an IC50 of 0.009 nM.
In the case of `COC(=O)N[C@H](C(=O)N1CCC[C@H]1c1ncc(-c2ccc(-c3ccc(NC(=O)NC(=O)[C@@H]4CCCN4C(=O)[C@@H](c4ccccc4)N(C)C)cc3)cc2)[nH]1)C(C)C` [Compound I-4, ((S)-1-{(S)-2-[5-(4′-{3-[(S)-1-((R)-2-Dimethylamino-2-phenyl-acetyl)-pyrrolidine-2-carbonyl]-ureido}-biphenyl-4-yl)-1H-imidazol-2-yl]-pyrrolidine-1-carbonyl}-2-methyl-propyl)-carbamic acid methyl ester], the IC50 is reported as 0.007 nM.
`COC(=O)N[C@H](C(=O)N1CCC[C@H]1C(=O)NC(=O)NCc1ccc(-c2ccc(-c3cnc([C@@H]4CCCN4C(=O)[C@@H](NC(=O)OC)C(C)C)[nH]3)cc2)cc1)C(C)C` [Compound I-5, ((S)-1-{(S)-2-[5-(4′-{3-[(S)-1-((S)-2-Methoxycarbonylamino-3-methyl-butyryl)-pyrrolidine-2-carbonyl]-ureidomethyl}-biphenyl-4-yl)-1H-imidazol-2-yl]-pyrrolidine-1-carbonyl}-2-methyl-propyl)-carbamic acid methyl ester] gave an IC50 of 1.98 nM.
For `COC(=O)N[C@H](C(=O)N1CCC[C@H]1c1ncc(-c2ccc(-c3ccc(CNC(=O)NC(=O)[C@@H]4CCCN4C(=O)[C@H](NC(=O)OC)c4ccccc4)cc3)cc2)[nH]1)C(C)C` [Compound I-6, ((S)-1-{(S)-2-[5-(4′-{3-[(S)-1-((R)-2-Methoxycarbonylamino-2-phenyl-acetyl)-pyrrolidine-2-carbonyl]-ureidomethyl}-biphenyl-4-yl)-1H-imidazol-2-yl]-pyrrolidine-1-carbonyl}-2-methyl-propyl)-carbamic acid methyl ester], the IC50 was 6.74 nM.
Compound `COC(=O)N[C@H]1CCC(=O)N2CCC[C@@H](c3ncc(-c4ccc(-c5ccc(NC(=O)NC(=O)[C@@H]6CCCN6C(=O)[C@H](NC(=O)OC)c6ccccc6)cc5)cc4)[nH]3)N2C1=O` [Compound I-7, {(4S,7S)-4-[5-(4′-{3-[(S)-1-((R)-2-Methoxycarbonylamino-2-phenyl-acetyl)-pyrrolidine-2-carbonyl]-ureido}-biphenyl-4-yl)-1H-imidazol-2-yl]-6,10-dioxo-octahydro-pyridazino[1,2-a][1,2]diazepin-7-yl}-carbamic acid methyl ester] has an IC50 of 0.427 nM.
Work on `COC(=O)N[C@H](C(=O)N1CCC[C@H]1c1ncc(-c2ccc(-c3nc4ccc(NC(=O)NC(=O)[C@@H]5CCCN5C(=O)OC(C)(C)C)cc4s3)cc2)[nH]1)C(C)C` [Compound I-8, (S)-2-{3-[2-(4-{2-[(S)-1-((S)-2-Methoxycarbonylamino-3-methyl-butyryl)-pyrrolidin-2-yl]-3H-imidazol-4-yl}-phenyl)-benzothiazol-6-yl]-ureidocarbonyl}-pyrrolidine-1-carboxylic acid tert-butyl ester] yielded an IC50 of 7.75 nM.
Work on `COC(=O)N[C@H](C(=O)N1CCC[C@H]1C(=O)NC(=O)Nc1ccc2nc(-c3ccc(-c4cnc([C@@H]5CCCN5C(=O)[C@@H](NC(=O)OC)C(C)C)[nH]4)cc3)sc2c1)C(C)C` [Compound I-9, [(S)-1-((S)-2-{5-[4-(6-{3-[(S)-1-((S)-2-Methoxycarbonylamino-3-methyl-butyryl)-pyrrolidine-2-carbonyl]-ureido}-benzothiazol-2-yl)-phenyl]-1H-imidazol-2-yl}-pyrrolidine-1-carbonyl)-2-methyl-propyl]-carbamic acid methyl ester] yielded an IC50 of 0.344 nM.
In the case of `COC(=O)N[C@H](C(=O)N1CCC[C@H]1c1ncc(-c2ccc(-c3ccc(NC(=O)NC(=O)[C@@H]4CCCN4C(=O)[C@H](NC(=O)OC)c4ccccc4)cn3)cc2)[nH]1)C(C)C` [Compound I-10, [(S)-1-((S)-2-{5-[4-(5-{3-[(S)-1-((R)-2-Methoxycarbonylamino-2-phenyl-acetyl)-pyrrolidine-2-carbonyl]-ureido}-pyridin-2-yl)-phenyl]-1H-imidazol-2-yl}-pyrrolidine-1-carbonyl)-2-methyl-propyl]-carbamic acid methyl ester], the IC50 is reported as 0.041 nM.
Compound `COC(=O)N[C@H](C(=O)N1CCC[C@H]1c1ncc(-c2ccc(-c3nc4ccc(NC(=O)NC(=O)[C@@H]5CCCN5C(=O)[C@@H](c5ccccc5)N(C)C)cc4s3)cc2)[nH]1)C(C)C` [Compound I-11, [(S)-1-((S)-2-{5-[4-(6-{3-[(S)-1-((R)-2-Dimethylamino-2-phenyl-acetyl)-pyrrolidine-2-carbonyl]-ureido}-benzothiazol-2-yl)-phenyl]-1H-imidazol-2-yl}-pyrrolidine-1-carbonyl)-2-methyl-propyl]-carbamic acid methyl ester] has an IC50 of 0.029 nM.
For `COC(=O)N[C@H](C(=O)N1CCC[C@H]1C(=O)NC(=O)Nc1ccc(-c2ccc(-c3cnc([C@@H]4CCCN4C(=O)[C@@H](NC(=O)OC)C(C)C)[nH]3)cc2)cc1F)C(C)C` [Compound I-12, ((S)-1-{(S)-2-[5-(3′-Fluoro-4′-{3-[(S)-1-((S)-2-methoxycarbonylamino-3-methyl-butyryl)-pyrrolidine-2-carbonyl]-ureido}-biphenyl-4-yl)-1H-imidazol-2-yl]-pyrrolidine-1-carbonyl}-2-methyl-propyl)-carbamic acid methyl ester], the IC50 was 0.064 nM.
